Like-named read-outs stand apart in the source and are kept apart here.

By AUC is commonly meant concentration integrated over time. A high value points to more exposure. Broadly, the MRT is a mean duration of stay, worked out from the concentration-time curve. Usually half-life stands for how long it takes for the measured level to halve.

Data set [1] is described as follows: Plasma protein binding, equilibrium dialysis. The class given is in vitro ADME. Here is the method:
Determination of compounds’ fraction unbound (f u ) in plasma from mouse, rat, and human was conducted in vitro via equilibrium dialysis using HTDialysis membrane plates. Dialysis membranes were hydrated as described by the manufacturer and inserted into the HTD plate, which was assembled and prepared for sample addition by the dispensing of blank buffer (Dulbecco’s Phosphate-Buffered Saline, 100 μL/well) into the trans chamber of each membrane-split well. Each compound was diluted into plasma from each species (5 μM final concentration), which was aliquoted in triplicate in the cis chamber of the prepared HTD plate wells. The HTD plate was sealed and incubated for 6 h at 37 °C. Following incubation, each well (both cis and trans chambers) was transferred (20 μL) to the corresponding wells of a 96-shallow-well (V-bottom) plate. The daughter plates were then matrix-matched (buffer-side wells received an equal volume of plasma, and plasma-side wells received an equal volume of buffer), and an extraction solution (120 μL; acetonitrile containing 50 nM carbamazepine as an internal standard (IS)) was added to all wells of both daughter plates to precipitate protein and extract the test article. The plates were then sealed and centrifuged (3500 rcf) for 10 min at ambient temperature. Supernatant (60 μL) from each well of the daughter plates was then transferred to the corresponding wells of new daughter plates (96-shallow-well, V-bottom) containing water (Milli-Q, 60 μL/well), and the plates were sealed in preparation for liquid chromatography–tandem mass spectrometry (LC-MS/MS) analysis (see below).
In general terms: In equilibrium dialysis free small molecules cross a membrane that holds back macromolecules.

Data set [2] is described as follows: Intrinsic clearance in liver microsomes. The conditions noted are these: for Human CLhep, % Hepatic blood flow: human liver microsomes; for CLhep predicted at 1 μM: human, liver microsomes, pH 7.4, human liver microsomes, read-out: Human CLhep (in vitro hepatic clearance from microsomal CLint). The class given is in vitro ADME, human. The method, then:
The in vitro intrinsic clearance (CLint) was investigated in commercially obtained hepatic microsomes from mouse, rat, and human donors using the substrate depletion (i.e., loss-of-parent vs time, or half-life (t 1/2) method) approach with analyte detection via liquid chromatography–tandem mass spectrometry (LC-MS/MS). For each species, mean %parent remaining values at each time point were calculated from replicate raw data (analyte:IS peak area ratios) and used to determine in vitro t 1/2 and CLint.
Experiments were carried out by using a robot-assisted liquid handler (Bravo with BenchCell, Agilent). The compound was incubated (1 μM final concentration) in buffer (100 mM potassium phosphate pH 7.4 with 3 mM MgCl2) containing hepatic microsomes (0.5 mg/mL final concentration) from each species, discretely, at 37 °C under constant orbital shaking. After 5 min (preincubation), reactions were initiated by the addition of nicotinamide adenine dinucleotide phosphate (NADPH, 1 mM final concentration). At selected time intervals (0, 3, 7, 15, 25, and 45 min) postaddition of NADPH, aliquots (50 μL) were taken and placed into a 96-shallow-well plate containing ice-cold acetonitrile (150 μL) with carbamazepine (IS, 50 nM). The plates were then centrifuged (3000 rcf at 4 °C) for 10 min. The supernatants were transferred to a new 96-shallow-well daughter plate and diluted (1:1 v/v) with water (Milli-Q filtered). The plates were then sealed for preparation for LC-MS/MS analysis (see below).
Analyte:IS peak area ratios generated by LC-MS/MS were used to construct natural log-transformed %parent remaining vs time plots (using t = 0 min post-NADPH addition sample data as the starting point set to 100%). In vitro compound t 1/2 values were calculated by using the following equation: t1/2=ln(2)/k where k is the slope from the linear regression analysis of the natural log-transformed data (using means from all replicates at each time point). Resulting t 1/2 values were then used to calculate hepatic CLint values according to the following equation and with the use of species-specific scale-up factors for liver weight (grams) per total body weight (kg): CLint=0.693/invitrot1/2×1mLincubation/0.5mgmicrosomes×45mgmicrosomes/1gramliver×garamliver/kgbodywt
^aScale-up factors used are 45 (rat) and 20 (human).
Predicted hepatic clearance (CLhep) was calculated by using the following equation: CLhep=Qh×CLint/Qh+CLint
Q h represents hepatic blood flow (mL/min/kg): 21 for humans, 70 for rats, and 90 for mouse.

The nature of data set [3]: In vivo IV pharmacokinetics, rat cassette. To be noted: Sprague-Dawley, plasma, 0.2 mg/kg, male SD rats, 0.2 mpk IV; for Vd: read-out: Vss; for clearance: read-out: rat in vivo CLp. Here is the method: In-life phase–Compounds were formulated in 12% ethanol, 48% PEG400, and 40% DMSO (v/v/v) at a concentration of 1 mg/mL and administered as a single 0.2 mg/kg IV dose (1 mL/kg) to male, Sprague–Dawley rats (n = 1; 342 g body weight) via injection into a surgically implanted jugular vein catheter. Blood samples were collected serially from a surgically implanted carotid artery catheter in each animal over multiple postadministration time points (0.033, 0.117, 0.25, 0.5, 1, 2, 4, 7, and 24 h) into chilled, K2EDTA anticoagulant-fortified tubes and immediately placed on wet ice. The blood samples were then centrifuged (1700 rcf, 5 min, 4 °C) in order to obtain plasma samples, which were stored at −80 °C until analysis by LC-MS/MS. VU6032735 was also dosed IV in C57Bl6 mice at 5 mg/kg IV to determine mouse PK. Formulation and experimental design were identical to those used for rats except that whole blood was used for analysis.
Plasma samples from the in-life phase of the study were thawed at ambient temperature (benchtop), and then, aliquots (20 μL per sample) were transferred to a 96-shallow-well (V-bottom) plate. Matrix-matched quality control (QC) samples and a standard curve of the compound (1 mg/mL DMSO stock solution) were prepared in blank rat plasma (K2EDTA-treated) via serial dilution and transferred (20 μL each) to the plate along with multiple blank plasma and tissue homogenate samples. Acetonitrile (120 μL) containing IS (10 nM carbamazepine) was added to each well of the plate to precipitate the protein. The plate was then centrifuged (4000 rcf, 5 min, ambient temperature), and the resulting supernatants (60 μL each) were transferred to a new 96-shallow-well (V-bottom) plate containing an equal volume (60 μL per well) of water (Milli-Q purified). The plate was then sealed for LC-MS/MS analysis.
Samples were analyzed via electrospray ionization (ESI) LC-MS/MS on an AB Sciex 4500 (Foster City, CA) triple-quadrupole instrument that was coupled with an Agilent 1290 Infinity Binary Pump and multisampler (Santa Clara, CA) and concentrations (ng/mL or ng/g) were determined using a matrix-matched 10-point standard curve and then converted to nM concentrations. Quantitation of compounds was performed via AB Sciex Multiquant software using the raw analyte:IS peak area ratios. The typical detection range was 0.5 ng/mL to ≥5000 ng/mL utilizing a quadratic equation regression with 1/x² weighting. Correction for dilution of all tissue samples was performed postquantitation. The corrections for dilution in the extraction buffer employed correction factors specific to each tissue weight.

Setting [4] is: human, fraction unbound, equilibrium dialysis, 5 μM, read-out: Plasma Protein Binding (fu) Human.
[5] abbreviates: mouse, equilibrium dialysis, 5 μM, read-out: Plasma Protein Binding (fu) Mouse.
Setting [6] is: rat, equilibrium dialysis, 5 μM, read-out: Plasma Protein Binding (fu) Rat.

With `Cc1cc(Cl)cc2sc(O[C@H]3CCN(C(=O)CCCS(=O)(=O)c4cccc(Br)c4)C[C@H]3F)nc12` [VU6047606], in data set [1] (human, fraction unbound as percent, read-out: fu in human plasma), the fraction unbound at 6 h, 5 μM was less than 0.01. Besides, the fraction unbound at 6 h, 5 μM in data set [1] (setting [4]) turned out to be 0.001. Besides, the fraction unbound at 6 h, 5 μM in data set [1] (setting [5]) is 0.0002. Also, the fraction unbound at 6 h, 5 μM in data set [1] (mouse, read-out: fu in mouse plasma) was less than 0.01. In addition, the fraction unbound at 6 h, 5 μM in data set [1] (setting [6]) amounted to 0.001. The fraction unbound at 6 h, 5 μM in data set [1] (rat, read-out: fu in rat plasma) is less than 0.01. In data set [2], the “Human CLhep, % Hepatic blood flow” value amounted to 74% and the CLhep predicted at 1 μM is greater than 15 mL/min/kg. Also, in data set [3], the AUC came to 83.1 ng·h/mL, the mean residence time (MRT) worked out at 2.09 h, the half-life was 1.96 h and the Vd was 5.03 L/kg. For the same compound, the clearance in data set [3] came to 40.1 mL/min/kg.
Turning to `O=C(c1ccc(OCc2ccc(OC(F)(F)F)cc2)cc1)N1CCN(c2ccc(C(F)(F)F)cn2)CC1` [VU6032735], in data set [1] (setting [4]), the fraction unbound at 6 h, 5 μM is 0.0005. In addition, the fraction unbound at 6 h, 5 μM in data set [1] (setting [5]) worked out at 0.012. Further, the fraction unbound at 6 h, 5 μM in data set [1] (setting [6]) is 0.024. In data set [2], the “Human CLhep, % Hepatic blood flow” value came out at 23% and the CLhep predicted at 1 μM is 4.8 mL/min/kg. Besides, in data set [3], the area under the curve (AUC) came out at 114 ng·h/mL, the mean residence time (MRT) was 2.66 h, the half-life was 2.19 h and the Vd stood at 4.69 L/kg. In data set [3], the clearance was 29.3 mL/min/kg.
Consider `Cc1cc(Cl)cc2sc(O[C@@H]3CCN(C(=O)CCCS(=O)(=O)c4cccc(Br)c4)C[C@@H]3F)nc12` [VU6047608], for which the fraction unbound at 6 h, 5 μM in data set [1] (setting [4]) turned out to be 0.001. The fraction unbound at 6 h, 5 μM in data set [1] (setting [5]) stood at 0.004. Also, the fraction unbound at 6 h, 5 μM in data set [1] (setting [6]) turned out to be 0.002. Besides, in data set [2], the “Human CLhep, % Hepatic blood flow” value is given as 82% and the CLhep predicted at 1 μM was 17.1 mL/min/kg. In data set [3], the area under the curve (AUC) came out at 58.8 ng·h/mL, the mean residence time (MRT) was 1.7 h, the half-life is 1.65 h and the Vd came to 5.77 L/kg. For the same compound, the clearance in data set [3] was found to be 56.7 mL/min/kg.
Turning to `Cc1cc(Cl)cc2sc(O[C@H]3CCN(C(=O)CCCS(=O)(=O)c4cccc(Br)c4)C[C@@H]3F)nc12` [VU6047609], the fraction unbound at 6 h, 5 μM in data set [1] (setting [4]) came to 0.002. Moreover, the fraction unbound at 6 h, 5 μM in data set [1] (setting [5]) was determined as 0.008. The fraction unbound at 6 h, 5 μM in data set [1] (setting [6]) turned out to be 0.004. Moreover, in data set [2], the “Human CLhep, % Hepatic blood flow” value is recorded as 75% and the CLhep predicted at 1 μM was 15.8 mL/min/kg. In data set [3], the area under the curve (AUC) was 45.2 ng·h/mL, the MRT was 2.36 h, the half-life is 2.91 h and the Vd came to 10.5 L/kg. In addition, in data set [3], the clearance came out at 73.8 mL/min/kg.
For the compound `Cc1cc(Cl)cc2sc(O[C@@H]3CCN(C(=O)CCCS(=O)(=O)c4cccc(Br)c4)C[C@H]3F)nc12` [VU6047607], the fraction unbound at 6 h, 5 μM in data set [1] (setting [4]) was 0.002. The fraction unbound at 6 h, 5 μM in data set [1] (setting [5]) was found to be 0.004. Moreover, in data set [1] (setting [6]), the fraction unbound at 6 h, 5 μM worked out at 0.004. In addition, in data set [2], the “Human CLhep, % Hepatic blood flow” value amounted to 82% and the CLhep predicted at 1 μM is 17.2 mL/min/kg. In addition, in data set [3], the exposure (AUC) came out at 47 ng·h/mL, the mean residence time MRT was determined as 1.58 h, the half-life was 1.8 h and the Vd was found to be 6.75 L/kg. In data set [3], the clearance was 71 mL/min/kg.

The values above are taken from PMC12441834, “Highly Potent and Subtype-Selective Sperm-Specific Potassium Channel SLO3 Inhibitors Display High Tissue Exposure in the Murine Female Reproductive Tract” (ACS Pharmacology & Translational Science, 2025).
